Results on three compounds are retold here after patent EP0018155A2, “Novel cephalosporin compounds, a process for the preparation thereof, pharmaceutical compositions containing the same and the use thereof as a therapeutic agent against a microorganism” (NOVO NORDISK A/S, priority 1979, dated 1980).

What all share (assay): agar serial dilution test (MIC)
What all share (type): cell-based

One assay concerns K. pneumoniae K8. The following applies: Klebsiella pneumoniae. How it is done: (§1) The antibiotic activity in vitro of some compounds according to the invention and of some previously known compounds was tested by means of an agar serial dilution test. The following compounds were tested: 7β-[2-(2-Aminothiazol-4-yl)-2-diethylphosphoryloxyiminoacetamido] cephalosporanic acid (designated ES 643, 7β-[2-(2-amino- thiazol-4-yl)-2-dimethylphosphoryloxyiminoacetamido] cephalosporanic acid (designated ES 671), 7β-[2-(2-amino- thiazol-4-yl)-2-dimorpholinophosphoryloxyiminoacetamido] cephalosporanic acid (designated ES 656), 7β-[2-(2-amino- thiazol-4-yl)-2-methylmethylphosphonyloxyiminoacetamido] cephalosporanic acid (designated ES 682), 7β-[2-(2-amino- thiazol-4-yl)-2-hydroxyiminoacetamido] cephalosporanic acid (designated A), cefuroxime (designated B), and cephalotin (designated C). MIC designates minimum inhibitory concentration.

The next assay has as its system S. albus 3348. How it is done:
as §1

A further assay relates to S. albus 3578. How it is done:
as §1

The next assay deals with S. aureus 13709. The protocol: as §1
The next assay concerns P. vulgaris 16868. The protocol: as §1
For another assay, the system named is P. vulgaris 17028. The protocol:
as §1

The next assay has as its system P. mirabilis 682. How it is done:
as §1

For a further assay, the system named is S. aureus 209P. The following applies: Staphylococcus aureus. How it is done:
as §1

Another assay has as its system P. mirabilis 2255. How it is done:
as §1

For a further assay, the system named is S. albus 12228. How it is done: as §1
The test system of the next assay is P. morganii 18. The protocol:
as §1

A further assay has as its system K. edwardsii K1. The protocol: as §1
The subject of another assay is E. coli 04. The protocol: as §1
The next assay has as its system E. coli 01. How it is done: as §1
The next assay has as its system S. pyogenes 12384. The protocol:
as §1

In another assay the test system is P. vulgaris 5209. How it is done: as §1
The test system of a further assay is S. aureus 3349. The protocol: as §1
For another assay, the system named is S. aureus 3356. The protocol:
as §1

The next assay has as its system S. pyogenes 12334. How it is done: as §1
The subject of a further assay is P. morganii 69. The protocol:
as §1

The next assay deals with P. mirabilis 2311. The protocol:
as §1

Where [1] appears, read: K. pneumoniae K8, read-out: MIC value.
Where [2] appears, read: Staphylococcus albus, S. albus 3348, read-out: MIC value.
Where [3] appears, read: Staphylococcus albus, S. albus 3578, read-out: MIC value.
[4] abbreviates: Staphylococcus aureus, S. aureus 13709, read-out: MIC value.
[5] abbreviates: Proteus vulgaris, P. vulgaris 16868, read-out: MIC value.
Setting [6] is: Proteus vulgaris, P. vulgaris 17028, read-out: MIC value.
[7] abbreviates: Proteus mirabilis, P. mirabilis 682, read-out: MIC value.
Setting [8] is: S. aureus 209P, read-out: MIC value.
The mark [9] stands for this setting: Proteus mirabilis, P. mirabilis 2255, read-out: MIC value.
Setting [10] is: Staphylococcus albus, S. albus 12228, read-out: MIC value.
[11] abbreviates: Morganella morganii, P. morganii 18, read-out: MIC value.
Setting [12] is: K. edwardsii K1, read-out: MIC value.
Where [13] appears, read: Escherichia coli, E. coli 04, read-out: MIC value.
Where [14] appears, read: Escherichia coli, E. coli 01, read-out: MIC value.
[15] abbreviates: Streptococcus pyogenes, S. pyogenes 12384, read-out: MIC value.
Setting [16] is: Proteus vulgaris, P. vulgaris 5209, read-out: MIC value.
[17] abbreviates: Staphylococcus aureus, S. aureus 3349*, penicillin-resistant strain, read-out: MIC value.
Setting [18] is: Staphylococcus aureus, S. aureus 3356*, penicillin-resistant strain, read-out: MIC value.
Where [19] appears, read: Streptococcus pyogenes, S. pyogenes 12334, read-out: MIC value.
[20] abbreviates: Morganella morganii, P. morganii 69, read-out: MIC value.
The mark [21] stands for this setting: Proteus mirabilis, P. mirabilis 2311, read-out: MIC value.

Structures are written as SMILES. ≈ marks a conversion by molar mass, not a printed value. Read-outs that look alike come from different tables or passages of the source.

Consider `CC(=O)OCC1=C(C(=O)O)N2C(=O)C(NC(=O)C(=NO)c3csc(N)n3)C2SC1` (stereo not drawn) [A, 7β-[2-(2-amino-thiazol-4-yl)-2-hydroxyiminoacetamido] cephalosporanic acid, reference compound], for which the MIC in the assay with K. pneumoniae K8 (setting [1]) came to 0.4 µg/mL (≈ 0.906 µM); in the assay on S. albus 3348 (setting [2]), 0.8 µg/mL (≈ 1.81 µM); in the assay with S. albus 3578 (setting [3]), 0.8 µg/mL (≈ 1.81 µM); in the assay with S. aureus 13709 (setting [4]), 1.6 µg/mL (≈ 3.62 µM); in the assay with P. vulgaris 16868 (setting [5]) it was 1.6 µg/mL (≈ 3.62 µM); with P. vulgaris 17028 (setting [6]), 0.8 µg/mL (≈ 1.81 µM). In addition, the MIC in the assay with P. mirabilis 682 (setting [7]) is below 0.1 µg/mL; in the assay on S. aureus 209P (setting [8]), 1.6 µg/mL (≈ 3.62 µM); in the assay with P. mirabilis 2255 (setting [9]) it was below 0.1 µg/mL; in the assay with S. albus 12228 (setting [10]) it was 0.8 µg/mL (≈ 1.81 µM); in the assay with P. morganii 18 (setting [11]) it was 0.2 µg/mL (≈ 0.453 µM); in the assay on K. edwardsii K1 (setting [12]) it was 0.2 µg/mL (≈ 0.453 µM). Moreover, the MIC with E. coli 04 (setting [13]) was 0.2 µg/mL (≈ 0.453 µM); in the assay on E. coli 01 (setting [14]), below 0.1 µg/mL; in the assay on S. pyogenes 12384 (setting [15]), below 0.1 µg/mL; in the assay with P. vulgaris 5209 (setting [16]), 6.2 µg/mL (≈ 14 µM); in the assay on S. aureus 3349 (setting [17]), 1.6 µg/mL (≈ 3.62 µM); with S. aureus 3356 (setting [18]) it was 0.8 µg/mL (≈ 1.81 µM). For the same compound, the MIC is below 0.1 µg/mL with S. pyogenes 12334 (setting [19]), 0.2 µg/mL (≈ 0.453 µM) in the assay on P. morganii 69 (setting [20]) and below 0.1 µg/mL in the assay on P. mirabilis 2311 (setting [21]).

Regarding `CO/N=C(\C(=O)N[C@@H]1C(=O)N2C(C(=O)O)=C(COC(N)=O)CS[C@H]12)c1ccco1` [B, cefuroxime, reference compound], the MIC with K. pneumoniae K8 (setting [1]) is 12.5 µg/mL (≈ 29.5 µM); in the assay on S. albus 3348 (setting [2]) it was 0.2 µg/mL (≈ 0.471 µM); in the assay on S. albus 3578 (setting [3]) it was 0.2 µg/mL (≈ 0.471 µM); with S. aureus 13709 (setting [4]), 0.8 µg/mL (≈ 1.89 µM); in the assay with P. vulgaris 16868 (setting [5]) it was above 100 µg/mL; with P. vulgaris 17028 (setting [6]), above 100 µg/mL. The MIC with P. mirabilis 682 (setting [7]) was 3.1 µg/mL (≈ 7.3 µM); in the assay with S. aureus 209P (setting [8]), 1.6 µg/mL (≈ 3.77 µM); in the assay on P. mirabilis 2255 (setting [9]) it was 1.6 µg/mL (≈ 3.77 µM); with S. albus 12228 (setting [10]), 0.4 µg/mL (≈ 0.943 µM); in the assay with P. morganii 18 (setting [11]), 25 µg/mL (≈ 58.9 µM); in the assay on K. edwardsii K1 (setting [12]) it was 6.2 µg/mL (≈ 14.6 µM). For the same compound, the MIC is 6.2 µg/mL (≈ 14.6 µM) in the assay with E. coli 04 (setting [13]); 3.1 µg/mL (≈ 7.3 µM) in the assay on E. coli 01 (setting [14]); below 0.1 µg/mL with S. pyogenes 12384 (setting [15]); above 100 µg/mL in the assay with P. vulgaris 5209 (setting [16]); 0.8 µg/mL (≈ 1.89 µM) in the assay with S. aureus 3349 (setting [17]); 0.8 µg/mL (≈ 1.89 µM) in the assay on S. aureus 3356 (setting [18]). Also, the MIC in the assay on S. pyogenes 12334 (setting [19]) is below 0.1 µg/mL; in the assay with P. morganii 69 (setting [20]) it was 25 µg/mL (≈ 58.9 µM); in the assay with P. mirabilis 2311 (setting [21]), 0.8 µg/mL (≈ 1.89 µM).

As to `CC(=O)OCC1=C(C(=O)O)N2C(=O)[C@@H](NC(=O)Cc3cccs3)[C@H]2SC1` [C, cephalotin, reference compound], the MIC is 50 µg/mL (≈ 126 µM) in the assay with K. pneumoniae K8 (K8, read-out: MIC value in μg/ml); below 0.1 µg/mL in the assay on S. albus 3348 (Staphylococcus albus, 3348, read-out: MIC value in μg/ml); below 0.1 µg/mL with S. albus 3578 (Staphylococcus albus, 3578, read-out: MIC value in μg/ml); 0.4 µg/mL (≈ 1.01 µM) in the assay with S. aureus 13709 (Staphylococcus aureus, 13709, read-out: MIC value in μg/ml); above 100 µg/mL in the assay on P. vulgaris 16868 (Proteus vulgaris, 16868, read-out: MIC value in μg/ml); above 100 µg/mL in the assay with P. vulgaris 17028 (Proteus vulgaris, 17028, read-out: MIC value in μg/ml). Moreover, the MIC in the assay with P. mirabilis 682 (Proteus mirabilis, 682, read-out: MIC value in μg/ml) was 6.2 µg/mL (≈ 15.6 µM); in the assay on S. aureus 209P (209P, read-out: MIC value in μg/ml), below 0.1 µg/mL; in the assay on P. mirabilis 2255 (Proteus mirabilis, 2255, read-out: MIC value in μg/ml), 3.1 µg/mL (≈ 7.82 µM); in the assay with S. albus 12228 (Staphylococcus albus, 12228, read-out: MIC value in μg/ml) it was 0.2 µg/mL (≈ 0.504 µM); with P. morganii 18 (Morganella morganii, 18, read-out: MIC value in μg/ml), above 100 µg/mL; in the assay on K. edwardsii K1 (read-out: MIC value in μg/ml) it was 0.2 µg/mL (≈ 0.504 µM). The MIC is 12.5 µg/mL (≈ 31.5 µM) in the assay on E. coli 04 (Escherichia coli, 04, read-out: MIC value in μg/ml); 6.2 µg/mL (≈ 15.6 µM) in the assay with E. coli 01 (Escherichia coli, 01, read-out: MIC value in μg/ml); below 0.1 µg/mL in the assay on S. pyogenes 12384 (Streptococcus pyogenes, 12384, read-out: MIC value in μg/ml); above 100 µg/mL in the assay with P. vulgaris 5209 (Proteus vulgaris, 5209, read-out: MIC value in μg/ml); 0.4 µg/mL (≈ 1.01 µM) in the assay with S. aureus 3349 (Staphylococcus aureus, 3349, read-out: MIC value in μg/ml); below 0.1 µg/mL in the assay with S. aureus 3356 (Staphylococcus aureus, 3356, read-out: MIC value in μg/ml). In addition, the MIC with S. pyogenes 12334 (Streptococcus pyogenes, 12334, read-out: MIC value in μg/ml) was below 0.1 µg/mL; in the assay with P. morganii 69 (Morganella morganii, 69, read-out: MIC value in μg/ml) it was above 100 µg/mL; with P. mirabilis 2311 (Proteus mirabilis, 2311, read-out: MIC value in μg/ml), 12.5 µg/mL (≈ 31.5 µM).
